# Reference: patent publication US20240408093A1, “HETEROBIFUNCTIONAL COMPOUNDS AND THEIR USE IN TREATING DISEASE” (HALDA THERAPEUTICS OPCO, INC., priority 2022, published 2024)
# Legend:
# [1] = target: T1, EGFR T790M, L858R (amino acids 669-1011) (Homo sapiens, UniProt P00533, L858R/T790M); test: KdELECT binding assay, EGFR T790M, L858R
# T1 construct: purchased Eurofins Discovery (KdELECT); host or cells: mammalian cells (HEK-293)
# Protocol: (§1) Exemplary compounds were tested for ability to bind to EGFR WT (amino acids 669-1011, Accession Number NP_005219.2) or EGFR T790M, L858R (amino acids 669-1011 Accession Number NP_005219.2) expressed from bacteria or mammalian cells, respectively. Compounds were tested using the KdELECT assay at Eurofins Discovery.
# (§2) Kinase-tagged T7 phage strains were prepared in an E. coli host derived from the BL21 strain. E. coli were grown to log-phase and infected with T7 phage and incubated with shaking at 32° C. until lysis. The lysates were centrifuged and filtered to remove cell debris. The remaining kinases were produced in HEK-293 cells and subsequently tagged with DNA for qPCR detection. Streptavidin-coated magnetic beads were treated with biotinylated small molecule ligands for 30 minutes at room temperature to generate affinity resins for kinase assays. The liganded beads were blocked with excess biotin and washed with blocking buffer (SeaBlock (Pierce), 1% BSA, 0.05% Tween 20, 1 mM DTT) to remove unbound ligand and to reduce non-specific binding. Binding reactions were assembled by combining kinases, liganded affinity beads, and test compounds in 1x binding buffer (20% SeaBlock, 0.17× PBS, 0.05% Tween 20, 6 mM DTT). Test compounds were prepared as 111× stocks in 100% DMSO. Kd values were determined using an 11-point 3-fold compound dilution series with three DMSO control points. All compounds for Kd measurements are distributed by acoustic transfer (non-contact dispensing) in 100% DMSO. The compounds were then diluted directly into the assays such that the final concentration of DMSO was 0.9%. All reactions performed in polypropylene 384-well plate. Each was a final volume of 0.02 mL. The assay plates were incubated at room temperature with shaking for 1 hour and the affinity beads were washed with wash buffer (1× PBS, 0.05% Tween 20). The beads were then re-suspended in elution buffer (1× PBS, 0.05% Tween 20, 0.5 μM nonbiotinylated affinity ligand) and incubated at room temperature with shaking for 30 minutes. The kinase concentration in the eluates was measured by qPCR.
# [2] = target: T2, EGFR WT (amino acids 669-1011) (Homo sapiens, UniProt P00533); test: KdELECT binding assay, EGFR WT
# T2 construct: purchased Eurofins Discovery (KdELECT); host or cells: bacteria (E. coli BL21-derived, T7 phage)
# Protocol: as §1, §2
# GSPT1 = target: T3, GSPT1 (Homo sapiens, UniProt P15170+Q96SW2); test: GSPT1 HiBiT degradation assay; type: cell-based; details: HEK293 LgBiT GSPT1 HiBiT cells, 6 hours
# T3 construct: host or cells: HEK293 LgBiT / GSPT1 HiBiT CRISPR knock-in
# How it was run: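 HEK293 CRISPR knock-in cells expressing LgBiT and GSPT1-HiBiT were seeded at 1000 cells/well and, after 18-24 h, treated with titrated compound plus endurazine (0.5× final) at 37 °C. Luminescence read after 6 h; loss of signal reflects GSPT1 degradation, giving DC50.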
# T1 sequence (P00533 669-1011 T790M/L858R): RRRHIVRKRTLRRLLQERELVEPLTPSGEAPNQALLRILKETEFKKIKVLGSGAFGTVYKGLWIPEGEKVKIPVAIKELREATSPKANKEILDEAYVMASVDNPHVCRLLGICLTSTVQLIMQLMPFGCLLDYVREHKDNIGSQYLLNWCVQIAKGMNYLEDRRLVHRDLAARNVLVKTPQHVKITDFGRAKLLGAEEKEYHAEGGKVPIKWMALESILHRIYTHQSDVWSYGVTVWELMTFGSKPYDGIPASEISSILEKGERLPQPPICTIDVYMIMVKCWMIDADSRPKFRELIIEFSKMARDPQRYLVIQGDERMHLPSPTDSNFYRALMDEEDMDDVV
# T3 sequence (P15170 whole entry): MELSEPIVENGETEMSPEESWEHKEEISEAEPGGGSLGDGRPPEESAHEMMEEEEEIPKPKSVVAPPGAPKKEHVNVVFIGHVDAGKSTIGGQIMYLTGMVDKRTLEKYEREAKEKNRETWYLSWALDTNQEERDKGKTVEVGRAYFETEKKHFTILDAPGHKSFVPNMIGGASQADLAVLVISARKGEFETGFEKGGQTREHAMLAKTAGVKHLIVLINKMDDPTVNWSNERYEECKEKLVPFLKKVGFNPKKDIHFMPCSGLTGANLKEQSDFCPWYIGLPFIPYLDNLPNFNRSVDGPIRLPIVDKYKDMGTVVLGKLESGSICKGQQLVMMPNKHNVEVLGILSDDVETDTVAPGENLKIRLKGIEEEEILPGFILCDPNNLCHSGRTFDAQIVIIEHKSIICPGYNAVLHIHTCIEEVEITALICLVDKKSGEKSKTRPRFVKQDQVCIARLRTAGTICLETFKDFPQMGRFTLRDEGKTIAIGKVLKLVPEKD
# T3 sequence (Q96SW2 whole entry): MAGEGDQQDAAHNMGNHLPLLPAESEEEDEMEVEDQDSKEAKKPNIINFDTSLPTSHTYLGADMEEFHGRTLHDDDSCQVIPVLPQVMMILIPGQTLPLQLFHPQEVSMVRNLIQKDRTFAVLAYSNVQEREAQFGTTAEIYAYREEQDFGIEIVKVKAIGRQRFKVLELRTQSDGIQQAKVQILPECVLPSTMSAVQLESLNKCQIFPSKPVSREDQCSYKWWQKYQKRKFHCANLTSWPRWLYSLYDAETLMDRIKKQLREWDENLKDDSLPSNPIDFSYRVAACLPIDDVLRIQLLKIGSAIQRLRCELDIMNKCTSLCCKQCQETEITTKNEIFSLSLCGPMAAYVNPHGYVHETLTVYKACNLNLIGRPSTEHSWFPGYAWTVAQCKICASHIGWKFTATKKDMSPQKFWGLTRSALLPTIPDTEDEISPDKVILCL
# T3 sequence (Q16531 whole entry partner): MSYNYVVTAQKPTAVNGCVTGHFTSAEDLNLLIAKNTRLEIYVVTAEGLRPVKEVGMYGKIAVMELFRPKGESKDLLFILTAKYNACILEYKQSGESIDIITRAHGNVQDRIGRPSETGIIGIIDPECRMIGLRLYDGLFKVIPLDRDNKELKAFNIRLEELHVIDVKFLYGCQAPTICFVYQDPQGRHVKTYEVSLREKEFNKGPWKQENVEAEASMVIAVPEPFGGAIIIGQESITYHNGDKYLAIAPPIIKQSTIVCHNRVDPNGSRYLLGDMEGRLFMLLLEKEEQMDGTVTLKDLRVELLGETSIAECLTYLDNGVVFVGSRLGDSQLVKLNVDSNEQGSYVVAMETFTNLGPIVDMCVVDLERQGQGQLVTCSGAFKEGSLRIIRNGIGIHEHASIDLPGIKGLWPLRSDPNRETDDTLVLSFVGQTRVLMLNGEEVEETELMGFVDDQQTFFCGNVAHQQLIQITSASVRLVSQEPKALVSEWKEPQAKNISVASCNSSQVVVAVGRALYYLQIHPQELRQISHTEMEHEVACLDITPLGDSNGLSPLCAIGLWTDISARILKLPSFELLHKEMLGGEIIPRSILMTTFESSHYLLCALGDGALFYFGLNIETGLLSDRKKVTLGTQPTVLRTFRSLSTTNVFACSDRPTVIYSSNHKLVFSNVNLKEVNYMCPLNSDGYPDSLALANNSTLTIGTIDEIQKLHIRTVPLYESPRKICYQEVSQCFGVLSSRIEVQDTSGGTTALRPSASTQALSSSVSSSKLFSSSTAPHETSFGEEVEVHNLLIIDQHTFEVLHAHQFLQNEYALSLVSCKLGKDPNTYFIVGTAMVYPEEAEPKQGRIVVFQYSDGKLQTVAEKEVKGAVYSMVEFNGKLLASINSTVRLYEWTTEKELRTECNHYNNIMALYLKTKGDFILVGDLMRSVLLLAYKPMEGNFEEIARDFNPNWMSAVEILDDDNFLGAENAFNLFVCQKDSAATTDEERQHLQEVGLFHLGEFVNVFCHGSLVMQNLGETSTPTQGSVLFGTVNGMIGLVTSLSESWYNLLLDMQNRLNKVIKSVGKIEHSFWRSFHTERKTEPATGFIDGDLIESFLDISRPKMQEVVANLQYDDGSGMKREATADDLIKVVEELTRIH
# T2 sequence (P00533 669-1011): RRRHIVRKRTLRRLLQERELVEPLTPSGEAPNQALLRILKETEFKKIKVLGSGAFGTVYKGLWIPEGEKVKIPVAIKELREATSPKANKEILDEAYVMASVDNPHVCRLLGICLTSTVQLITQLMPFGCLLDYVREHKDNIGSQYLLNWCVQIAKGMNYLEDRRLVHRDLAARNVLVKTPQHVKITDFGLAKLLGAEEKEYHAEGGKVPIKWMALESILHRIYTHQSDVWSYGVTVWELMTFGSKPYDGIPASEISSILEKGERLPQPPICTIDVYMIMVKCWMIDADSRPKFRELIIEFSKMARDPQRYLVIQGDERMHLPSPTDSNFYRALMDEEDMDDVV
Compound,Kd [1] [nM],Kd [2] [nM],DC50 (GSPT1) [nM]
C=C(COc1cc(Cl)cc(NC(=O)NCc2ccc3c(c2)CN(C2CCC(=O)NC2=O)C3=O)c1)C(=O)Nc1cc(Nc2nccc(-c3cn(C)c4ccccc34)n2)c(OC)cc1N(C)CCN(C)C (stereo not shown) [Compound I-59],< 50,< 50,50 to 500
C=C(CN(C(=O)NCc1ccc2c(c1)CN(C1CCC(=O)NC1=O)C2=O)c1ccc(C)c(Cl)c1)C(=O)Nc1cc(Nc2ncc(-c3cn(C)c4ccccc34)cn2)c(OC)cc1N(C)CCN(C)C (stereo not shown) [Compound I-42],500 to 2500,> 2500,> 2500
C=C(COc1cc(Cl)cc(NC(=O)NCc2ccc3c(c2)CN(C2CCC(=O)NC2=O)C3=O)c1)C(=O)N[C@@H]1CN(c2nc(Nc3cn(C)nc3OC)c3ncn(C)c3n2)C[C@H]1F (stereo partly shown) [Compound I-45],< 50,50 to 500,500 to 2500
C=C(COc1cc(Cl)cc(NC(=O)NCc2ccc3c(c2)CN(C2CCC(=O)NC2=O)C3=O)c1)C(=O)N1C[C@H](COc2nc(Nc3cnn(C)c3)nc3[nH]cc(Cl)c23)[C@@H](OC)C1 (stereo partly shown) [Compound I-54],> 2500,> 2500,< 50
C=C(CN1C(=O)CCC(N2Cc3cc(CNC(=O)Nc4ccc(C)c(Cl)c4)ccc3C2=O)C1=O)C(=O)Nc1cc(Nc2ncc(-c3cn(C)c4ccccc34)cn2)c(OC)cc1N(C)CCN(C)C (stereo not shown) [Compound I-87],< 50,> 2500,50 to 500
C=C(COc1ccc(Cl)cc1NC(=O)NCc1ccc2c(c1)CN(C1CCC(=O)NC1=O)C2=O)C(=O)N[C@@H]1CN(c2nc(Nc3cn(C)nc3OC)c3ncn(C)c3n2)C[C@H]1F (stereo partly shown) [Compound I-47],< 50,< 50,50 to 500
C=C(COc1c(Cl)cccc1NC(=O)NCc1ccc2c(c1)CN(C1CCC(=O)NC1=O)C2=O)C(=O)Nc1cc(Nc2nccc(-c3cn(C)c4ccccc34)n2)c(OC)cc1N(C)CCN(C)C (stereo not shown) [Compound I-60],< 50,50 to 500,500 to 2500
C=C(COc1cc(Cl)cc(NC(=O)NCc2ccc3c(c2)CN(C2CCC(=O)NC2=O)C3=O)c1)C(=O)Nc1cccc(-c2cccc3cnc(Nc4ccc(N5CCN(CCO)CC5)c(F)c4F)nc23)c1 (stereo not shown) [Compound I-61],50 to 500,500 to 2500,50 to 500
C=C(COc1cc(Cl)cc(NC(=O)NCc2ccc3c(c2)CN(C2CCC(=O)NC2=O)C3=O)c1)C(=O)Nc1cccc(Oc2nc(Nc3ccc(N4CCN(C)CC4)cc3)nc3ccsc23)c1 (stereo not shown) [Compound I-55],500 to 2500,> 2500,50 to 500

# The next lines start with the values.
Kd [1] [nM],Kd [2] [nM],DC50 (GSPT1) [nM],Compound
> 2500,> 2500,–,C=C(COC(=O)n1c(CNc2nc(N3CCNCC3)nc3c(Br)cnn23)nc2cc(C)ccc21)C(=O)N1C[C@H](COc2nc(Nc3cnn(C)c3)nc3[nH]cc(Cl)c23)[C@@H](OC)C1 [Compound V-4]
< 50,< 50,–,C=C(CN1CCN(c2nc(NCc3nc4cc(C)ccc4[nH]3)n3ncc(Br)c3n2)CC1)C(=O)Nc1cc(Nc2nccc(-c3cn(C)c4ccccc34)n2)c(OC)cc1N(C)CCN(C)C [II-188]
> 2500,> 2500,–,C=C(COC(=O)N1CCN(c2nc(NCc3nc4cc(C)ccc4[nH]3)n3ncc(Br)c3n2)CC1)C(=O)N1C[C@H](COc2nc(Nc3cnn(C)c3)nc3[nH]cc(Cl)c23)[C@@H](OC)C1 [II-185]
50 to 500,50 to 500,–,C=C(COc1cc(-c2ccccn2)ccc1CNc1nc(N[C@H](CC)CO)nc2c1ncn2C(C)C)C(=O)N[C@@H]1CN(c2nc(Nc3cn(C)nc3OC)c3ncn(C)c3n2)C[C@H]1F [II-183]
500 to 2500,> 2500,–,C=C(CN1CCN(c2nc(NCc3nc4cc(C)ccc4[nH]3)n3ncc(Br)c3n2)CC1)C(=O)Nc1cccc(-c2cccc3cnc(Nc4ccc(N5CCN(CCO)CC5)c(F)c4F)nc23)c1 [II-191]
